# Source: PubChem BioAssay (NCI)
# Values joined by “and” are separate entries in the source; they are usually repeats but may differ in a detail not shown here. Equal entries are not always repeated.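 Grown in 96-well plates, cells were treated for 48 hours with each compound at five concentrations. Insufficient inhibition: endpoint recorded as highest concentration tested. Here, GI50 denotes the concentration required for 50% inhibition of growth. At the TGI there is no net growth.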
# How the values were obtained:
# Assay in all cases: NCI anticancer screen, dose series, 48 h
# 786-0 renal = system: 786-0 renal
# A498 renal = system: A498 renal
# A549 NSCLC = system: A549 NSCLC
# ACHN renal = system: ACHN renal
# BT-549 breast = system: BT-549 breast
# CAKI-1 renal = system: CAKI-1 renal
# CCRF-CEM leukemia = system: CCRF-CEM leukemia
# COLO 205 colon = system: COLO 205 colon
# DU-145 prostate = system: DU-145 prostate
# EKVX NSCLC = system: EKVX NSCLC
# HCC-2998 colon = system: HCC-2998 colon
# HCT-116 colon = system: HCT-116 colon
# HCT-15 colon = system: HCT-15 colon
# HL-60(TB) leukemia = system: HL-60(TB) leukemia
# HOP-62 NSCLC = system: HOP-62 NSCLC
# HOP-92 NSCLC = system: HOP-92 NSCLC
# HT29 colon = system: HT29 colon
# IGROV1 ovarian = system: IGROV1 ovarian
# K-562 leukemia = system: K-562 leukemia
# KM12 colon = system: KM12 colon
# LOX IMVI melanoma = system: LOX IMVI melanoma
# M14 melanoma = system: M14 melanoma
# MALME-3M melanoma = system: MALME-3M melanoma
# MCF7 breast = system: MCF7 breast
# MDA-MB-231 breast = system: MDA-MB-231 breast
# MDA-MB-435 = system: MDA-MB-435
# MDA-N = system: MDA-N
# MOLT-4 leukemia = system: MOLT-4 leukemia
# NCI-H226 lung = system: NCI-H226 lung
# NCI-H23 lung = system: NCI-H23 lung
# NCI-H460 lung = system: NCI-H460 lung
# NCI-H522 lung = system: NCI-H522 lung
# NCI/ADR-RES ovarian = system: NCI/ADR-RES ovarian
# OVCAR-3 ovarian = system: OVCAR-3 ovarian
# OVCAR-4 ovarian = system: OVCAR-4 ovarian
# OVCAR-5 ovarian = system: OVCAR-5 ovarian
# OVCAR-8 ovarian = system: OVCAR-8 ovarian
# PC-3 prostate = system: PC-3 prostate
# RPMI-8226 leukemia = system: RPMI-8226 leukemia
# RXF 393 renal = system: RXF 393 renal
# SF-268 CNS = system: SF-268 CNS
# SF-295 CNS = system: SF-295 CNS
# SK-MEL-2 melanoma = system: SK-MEL-2 melanoma
# SK-MEL-28 melanoma = system: SK-MEL-28 melanoma
# SK-MEL-5 melanoma = system: SK-MEL-5 melanoma
# SK-OV-3 ovarian = system: SK-OV-3 ovarian
# SN12C renal = system: SN12C renal
# SNB-19 CNS = system: SNB-19 CNS
# SNB-75 CNS = system: SNB-75 CNS
# SR leukemia = system: SR leukemia
# SW-620 colon = system: SW-620 colon
# T-47D breast = system: T-47D breast
# TK-10 renal = system: TK-10 renal
# U251 CNS = system: U251 CNS
# UACC-257 melanoma = system: UACC-257 melanoma
# UACC-62 melanoma = system: UACC-62 melanoma
# UO-31 renal = system: UO-31 renal
smiles,measurement,setting,value
COC(=O)/C=C/c1cc(OC)c2c(c1)C(C(=O)OC)C(c1ccc(OC)c(OC)c1)O2 (configuration not stated),TGI,786-0 renal,> 100 µM
same,GI50,A498 renal,64.1 µM
same,TGI,A498 renal,> 100 µM
same,TGI,A549 NSCLC,> 100 µM
same,TGI,ACHN renal,> 100 µM
same,GI50,BT-549 breast,29 µM and 6.01 µM
same,TGI,BT-549 breast,99.6 µM and > 100 µM
same,TGI,CAKI-1 renal,> 100 µM
same,TGI,CCRF-CEM leukemia,> 100 µM
same,TGI,COLO 205 colon,> 100 µM and 17.6 µM
same,GI50,DU-145 prostate,> 100 µM
same,TGI,DU-145 prostate,> 100 µM
same,GI50,EKVX NSCLC,39.3 µM and 5.12 µM
same,TGI,EKVX NSCLC,> 100 µM
same,GI50,HCC-2998 colon,> 100 µM and 38.6 µM
same,TGI,HCC-2998 colon,> 100 µM
same,TGI,HCT-116 colon,> 100 µM
same,TGI,HCT-15 colon,> 100 µM
same,TGI,HL-60(TB) leukemia,> 100 µM
same,TGI,HOP-62 NSCLC,> 100 µM
same,TGI,HOP-92 NSCLC,> 100 µM
same,TGI,HT29 colon,> 100 µM
same,TGI,IGROV1 ovarian,> 100 µM
same,TGI,K-562 leukemia,> 100 µM
same,TGI,KM12 colon,> 100 µM
same,TGI,LOX IMVI melanoma,> 100 µM
same,TGI,M14 melanoma,> 100 µM
same,TGI,MALME-3M melanoma,> 100 µM
same,TGI,MCF7 breast,> 100 µM
same,TGI,MDA-MB-231 breast,> 100 µM
same,GI50,MDA-MB-435,19.8 µM
same,TGI,MDA-MB-435,49 µM
same,GI50,MDA-N,30.6 µM
same,TGI,MDA-N,> 100 µM
same,TGI,MOLT-4 leukemia,> 100 µM
same,TGI,NCI-H226 lung,> 100 µM and 25.6 µM
same,GI50,NCI-H23 lung,> 100 µM
same,TGI,NCI-H23 lung,> 100 µM
same,GI50,NCI-H460 lung,48.6 µM and 15.7 µM
same,TGI,NCI-H460 lung,> 100 µM
same,TGI,NCI-H522 lung,> 100 µM
same,GI50,NCI/ADR-RES ovarian,43.3 µM and 4.9 µM
same,TGI,NCI/ADR-RES ovarian,> 100 µM
same,TGI,OVCAR-3 ovarian,> 100 µM
same,GI50,OVCAR-4 ovarian,45.9 µM and 8.71 µM
same,TGI,OVCAR-4 ovarian,> 100 µM
same,GI50,OVCAR-5 ovarian,> 100 µM
same,TGI,OVCAR-5 ovarian,> 100 µM
same,TGI,OVCAR-8 ovarian,> 100 µM
same,TGI,PC-3 prostate,> 100 µM
same,TGI,RPMI-8226 leukemia,> 100 µM
same,TGI,RXF 393 renal,> 100 µM
same,GI50,SF-268 CNS,70.7 µM and 10.7 µM
same,TGI,SF-268 CNS,> 100 µM
same,TGI,SF-295 CNS,> 100 µM
same,TGI,SK-MEL-2 melanoma,> 100 µM
same,TGI,SK-MEL-28 melanoma,> 100 µM
same,TGI,SK-MEL-5 melanoma,> 100 µM
same,TGI,SK-OV-3 ovarian,> 100 µM
same,TGI,SN12C renal,> 100 µM
same,TGI,SNB-19 CNS,> 100 µM
same,TGI,SNB-75 CNS,5.61 µM
same,TGI,SR leukemia,> 100 µM
same,TGI,SW-620 colon,> 100 µM
same,GI50,T-47D breast,39.9 µM and 4.16 µM
same,TGI,T-47D breast,> 100 µM
same,TGI,TK-10 renal,> 100 µM
same,TGI,U251 CNS,> 100 µM
same,TGI,UACC-257 melanoma,> 100 µM
same,TGI,UACC-62 melanoma,> 100 µM
same,GI50,UO-31 renal,32.1 µM and 8.62 µM
same,TGI,UO-31 renal,> 100 µM
